Measured values published in patent USRE38352E1, “Polymerase chain reaction assays for monitoring antiviral therapy and making therapeutic decisions in the treatment of acquired immunodeficiency syndrome” (priority 1992, dated 2003).
Several values for one entry are separate records, joined by “and”; a condition that tells them apart may be missing. Identical values can stand only once.

Legend:
[1] = tested on: CD4 cells; set-up: species or system human (HIV antibody-positive subjects); conditions: human, in vivo
Description: (§1) Two plasma samples were collected from an additional 27 subjects before and 1 month after initiation of dideoxynucleoside therapy. 18 of these subjects received 500 mg/d of AZT orally. Seven subjects received a combination of zidovudine (150-600 mg/d) and 2′,3′-dideoxyinosine (ddI) (134-500 mg/d). Two patients received 500 mg/d of ddI alone (see Table I for individual subject characteristics). Finally, nine of these subjects had two plasma samples taken 1-3 wk. before initiating antiretroviral therapy and two plasma samples taken 1 and 2 mo. after commencing therapy. Plasma was separated within 4 h. by centrifugation at 500 g for 10 min. A second centrifugation was performed on the plasma at 500 g for 30 min. to remove any cellular material. 200 μl of plasma was then mixed with 200 μl of a solution containing 5M guanidinium thiocyanate, vortexed briefly, and stored at −70° C. until further use. All samples were assayed within 3 mo. of collection. To decrease variance, all specimens to be compared from the same subject were run in the same assay.
Sample optical density was converted to copy number and analyses performed on samples expressed as RNA copy number/200 μl of plasma. […] A t test of paired samples was used to analyze paired plasma data and CD4 counts from subjects pre- and post-therapy. All t tests were two tailed. […]

[2] = tested on: CD4+ T cells; test: CD4+ T-cell slope changes before/after codon 74 mutation on didanosine; assay type: in vivo, human (patients infected with HIV); conditions: 34 of 38 patients who developed the mutation; CI −2.68 to −0.71
Excerpt: (§2) A two-sided t-test was used to compare changes in virus burden between patient groups. A standard one-sample, two-sided Wilcoxon test was used to compare differences in the change of slopes of CD4^+ T cells (slopes of CD4^+ cells before the mutation compared with slopes of CD4^+ cells after the mutation) for patients developing a mutation at codon 74. The slope difference test analysis pertained to the slope difference statistic, defined to be the difference in fitted slope of the CD4^+ counts after compared with before the mutation at codon 74. Thirty-four of 38 patients in the mutation group had sufficient data to allow computation of the slope difference statistic.
We compared the slope difference statistic values for the 34 mutants with the corresponding values from the wild-type group in order to see if they were more negative in the mutant group. […]

[3] = tested on: HIV with codon 74 mutation in reverse transcriptase; conditions: codon 74 mutation in an HIV construct (St. Clair et al.); cited from earlier work
[4] = tested on: serum HIV RNA; test: Serum virus burden by quantitative PCR in patients receiving didanosine monotherapy; assay type: in vivo, human (patients infected with HIV)
Excerpt: Duplicate serum samples were ultracentrifuged, and the pellet was purified by phenol-chloroform extraction and alcohol precipitation, as previously described for plasma (Winters et al., 1993, J. Clin. Microbiol. 31:2960-2966). Polymerase chain reaction quantification of viral RNA was done using reverse-transcriptase PCR, and the PCR product was detected using a nonisotopic enzyme-hybridization assay, as previously described (Winters et al., 1992, PCR Methods Appl. 1:257-262). Results were then expressed as HIV RNA copies per milliliter of serum.
as §2

[5] = tested on: plasma HIV RNA; test: Plasma HIV RNA copy number by cDNA gene amplification (PCR) and enzyme-linked affinity assay; assay type: in vivo, human (HIV antibody-positive subjects); conditions: individual patient
Excerpt: After informed consent was obtained, whole blood samples were collected by venipuncture in the presence of acid-citrate-dextrose as an anticoagulant. A single plasma sample was collected from 39 HIV antibody-positive subjects who were not receiving antiretroviral therapy at the time of collection and from 33 HIV antibody-positive subjects who were currently on and had received AZT for a minimum of 3 mo.
as §1
RNA was extracted from plasma by the method described in Chomczynski et al., 1987, Ann. Biochem. 162:156-159. Briefly, 200 μl of clarified plasma to which 200 μl of 5M guanidinium thiocyanate had previously been added was extracted with phenol/chloroform and precipitated with isopropanol. The resulting pellet was then washed in 75% ethanol, dried, and brought up in diethylpyrocarbonate treated, glass distilled water.
HIV RNA was transcribed to cDNA using Moloney murine leukemia virus reverse transcriptase (Bethesda Research Laboratories, Gaithersburg, Md.) by the method described in Kawasaki, 1990, “In PCR Protocols: A Guide to Methods and Applications” pp. 21-27, M. A. Innis, D. H. Gelfand, J. J. Sninsky, and T. J. White, eds. Academic Press, Berkeley, Calif. Oligomers used for amplification included SK38, SK39, and SK19 (Kellog et al., 1990, “In PCR Protocols: A Guide to Methods and Applications,” pp. 337-348, M. A. Innis, D. H. Gelfand, J. J. Sninsky, and T. J. White, eds. Academic Press, Berkeley, Calif.). Biotinylation of SK38 and horseradish peroxidase (HRP) labeling of probe SK19 were prepared as described in Levenson et al., 1990, “In PCR Protocols: A Guide to Methods and Applications,” pp. 99-112M. S. Innis, D. H. Gelfand, J. J. Sninsky, and T. J. White, eds. Academic Press, Berkeley, Calif. Amplification of HIV cDNA was carried out as follows: to a 100-μl reaction mixture was added the cDNA, 50 pmol of primers SK38 and SDK39, […] of each dNTP, 10 mM Tris (pH 8.3), 2.5 mM MgCl2, 50 mM KCl, and 2.5 U of recombiTaq DNA polymerase (Perkin-Elmer Cetus, Norwalk, Conn.). The mixture was then overlaid with 50 μl of mineral oil. Tubes were placed in a DNA thermal cycler (Perkin-Elmer Cetus) for 30 cycles of amplification with the following program: 95° C./30 s, 55° C./30s, and 72° C./60 s for denaturation, annealing, and extension, respectively. Negative and positive controls which included both high and low copy number HIV RNA and DNA were added at each step.
To detect and quantitate PCR product, 96-well microplates (Maxisorp; Nunc, Naperville, Ill.) were coated with 100 μl of a 0.1 mg/ml solution of avidin (Sigma Chemical Co., St. Louis, Mo.) in 50 mM Na2CO3 (pH 9.6) overnight at room temperature. Wells were then washed twice with PBS. Wells were then filled with 300 μl of a blocking solution containing 5X Denhardt's solution, 1% gelatin (Sigma), […] sheared herring sperm DNA (Promega Biotec, Madison, Wis.) at least overnight at 4° C. […]

With OC[C@@H]1CC[C@H](n2cnc3c(O)ncnc32)O1 [ddI, 2′,3′-dideoxyinosine] the “Post CD4” value [1] was 328/310 and 222/370, the “Pre CD4” value [1] was 328/310 and 222/370 and the “median greater decline of CD4+ T-cell slope after vs before codon 74 mutation” value [2] was −1.54 CD4^+ cells/wk. For the same compound, the “decrease in susceptibility to didanosine” value [3] was “eightfold”, the “Fold Difference in virus burden, mutant vs wild type” value (“Fold Difference in virus burden” for short) ([4]; Week 0, listed as DIDANOSINE) was 1.66 fold and the “Fold Difference in virus burden” value ([4]; Week 0, listed as didanosine) was 1.6 fold. The “Fold Difference in virus burden” value ([4]; Week 24, listed as DIDANOSINE) was 2.71 fold, the “Fold Difference in virus burden” value ([4]; Week 24, listed as didanosine) was 2.7 fold and the “Week 0, mean HIV RNA copies/mL serum” value ([4]; patients whose codon 74 genotypes became mutant, initiation of didanosine) was 83 000 copies/mL serum. For the same compound, the “Week 0, mean HIV RNA copies/mL serum” value ([4]; patients whose codon 74 genotypes remained wild type, initiation of didanosine, listed as DIDANOSINE) was 50100 copies/mL serum, the “Week 0, mean HIV RNA copies/mL serum” value ([4]; patients whose codon 74 genotypes remained wild type, initiation of didanosine, listed as didanosine) was 50 100 copies/mL serum and the “Fold increase in virus burden between week 0 to 24” value ([4]; remained wild type at codon 74) was 1.65 fold. For the same compound, the “Week 24, mean HIV RNA copies/mL serum” value ([4]; remained wild type at codon 74) was 82400 copies/mL serum, the “mean serum virus burden” value ([4]; subgroup codon 74 mutation with codon 215 mutation, after 24 weeks of didanosine) was “about 275 400 HIV RNA copies/mL serum” and the “Week 0, mean HIV RNA copies/mL serum” value ([4]; {}) was 83000 copies/mL serum. For the same compound, the “Week 24, mean HIV RNA copies/mL serum” value ([4]; {}) was 225000 copies/mL serum, the “Post HIV RNA” value ([5]; 1 mo after initiation, ddI 500 mg/d) was 0 copy number/200 μl of plasma and the “Pre HIV RNA” value ([5]; before initiation of therapy) was 966 copy number/200 μl of plasma and 3944 copy number/200 μl of plasma.
